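Briefly, cells in 96-well plates were exposed to five compound concentrations for 48 h, and endpoints were estimated by linear interpolation. TGI denotes the concentration required for complete inhibition of growth.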
Key:
Test in all cases: NCI-60 cell line screen, 48 h
[1] = system: BT-549 breast
[2] = system: COLO 205 colon
[3] = system: EKVX NSCLC
[4] = system: HL-60(TB) leukemia
[5] = system: HS 578T breast
[6] = system: KM12 colon
[7] = system: NCI-H522 lung
[8] = system: OVCAR-3 ovarian
[9] = system: OVCAR-8 ovarian
[10] = system: PC-3 prostate
[11] = system: RXF 393 renal
[12] = system: SF-268 CNS
[13] = system: SK-MEL-28 melanoma
[14] = system: SN12C renal
[15] = system: SNB-19 CNS
[16] = system: SNB-75 CNS

SMILES	TGI [1]	TGI [2]	TGI [3]	TGI [4]	TGI [5]	TGI [6]	TGI [7]	TGI [8]	TGI [9]	TGI [10]	TGI [11]	TGI [12]	TGI [13]	TGI [14]	TGI [15]	TGI [16]
O=c1c2ccccc2nc(-c2ccccc2)n1/N=C/c1ccccc1[N+](=O)[O-]	> 100 µM	> 100 µM	> 100 µM	> 100 µM	15.9 µM	> 100 µM	> 100 µM	> 100 µM	> 100 µM	> 100 µM	80.4 µM	> 68.7 µM	> 100 µM	> 100 µM	56.7 µM	34.2 µM
COC(=O)C(Cc1c(-c2[nH]c3ccccc3c2CC(NC(C)=O)C(=O)OC)[nH]c2ccccc12)NC(C)=O (stereo unspecified)	> 100 µM	> 100 µM	> 100 µM	> 100 µM	> 100 µM	> 100 µM	> 100 µM	> 100 µM	> 100 µM	> 100 µM	> 100 µM	> 100 µM	> 100 µM	> 100 µM	> 100 µM	> 100 µM
C[C@H]1[C@H]2[C@H](C[C@@]3(C)C4=CC[C@H]5C(C)(C)[C@@H](OC6OCC(O)C(O)C6O)CC[C@@]56C[C@@]46CC[C@]23C)O[C@@]2(O)[C@@H]1OC(C)(C)[C@H]2O (stereo partly specified)	8.78 µM	16.1 µM	2.61 µM	28.8 µM	3.7 µM	4.12 µM	2.42 µM	9.61 µM	1.81 µM	2.32 µM	3.71 µM	6.35 µM	6.23 µM	2.75 µM	8.4 µM	6 µM
COC(=O)c1cc(C#N)[nH]c1-c1ccc(Br)s1	22.8 µM	29.1 µM	17.1 µM	36.5 µM	20.8 µM	> 50 µM	19.6 µM	15.9 µM	27.1 µM	13.4 µM	19.4 µM	24.2 µM	24.4 µM	26 µM	22.3 µM	24.9 µM
COC(=O)c1ccccc1C1CN=NC12Cc1cc3c(cc1C2=O)CCC3 (stereo unspecified)	> 100 µM	> 100 µM	> 100 µM	61.5 µM	> 100 µM	> 100 µM	> 100 µM	> 100 µM	> 100 µM	> 100 µM	> 100 µM	> 100 µM	> 100 µM	> 100 µM	> 100 µM	> 100 µM
COC(=O)NCCc1[nH]nc2c1C(=O)C=C(Nc1ccccc1OC)C2=O	> 100 µM	61.6 µM	> 100 µM	52.7 µM	99.7 µM	64.4 µM	78.2 µM	> 100 µM	35.1 µM	> 100 µM	> 100 µM	> 100 µM	95.9 µM	> 100 µM	> 100 µM	> 100 µM
C=C(CN(C)C)C(=O)c1ccccc1	45 µM	3.03 µM	46.3 µM	> 20.8 µM	> 100 µM	42.2 µM	1.69 µM	9.9 µM	44.6 µM	30.6 µM	6.47 µM	> 58.2 µM	34.8 µM	38.7 µM	53.1 µM	39.7 µM
C=CC(=O)C#Cc1cnc(OC)nc1OC	17.5 µM	13.3 µM	> 72 µM	3.25 µM	> 88.3 µM	30 µM	42.7 µM	33.7 µM	> 73.6 µM	42 µM	> 66.2 µM	> 71.9 µM	> 47 µM	37.7 µM	> 58.9 µM	20.5 µM
COC1=CC(=O)C2=C(C1=O)[C@H]1CC[C@]3(C)C(=O)CC[C@H]3[C@@H]1CC2	71.2 µM	> 100 µM	30.4 µM	22.4 µM	70.5 µM	> 100 µM	59.8 µM	52.3 µM	33.1 µM	85.2 µM	67.8 µM	46.3 µM	> 100 µM	44.5 µM	> 100 µM	> 100 µM
O=[N+]([O-])c1ccc(C2Nn3c(nnc3-c3cccc([N+](=O)[O-])c3)S2)cc1 (stereo unspecified)	> 100 µM	> 100 µM	> 100 µM	> 100 µM	> 100 µM	> 100 µM	> 100 µM	> 100 µM	> 100 µM	> 100 µM	> 100 µM	> 100 µM		> 100 µM	> 100 µM	> 100 µM
CC(O)C1(O)C(O)CC(OC2c3cc4c(c(O)c3[C@@H]3C[C@@]2(C)OC32C=c3cc[nH]c3=N2)C(=O)c2cccc(O)c2C4=O)OC1C (stereo partly specified)	19.3 µM	1.97 µM	3.6 µM	3.07 µM	5.87 µM	3.77 µM	1.09 µM	6.45 µM	4.75 µM	4.86 µM	2.31 µM	4.38 µM	3.78 µM	1.13 µM	11.3 µM	8 µM
O=C(NCCc1ccccn1)c1ccc2cc(C(=O)N3CC(CCl)c4ccc([N+](=O)[O-])cc43)[nH]c2c1 (stereo unspecified)	> 100 µM	> 100 µM	> 100 µM	> 100 µM	> 100 µM	> 100 µM	> 86.7 µM	28.2 µM	> 86.9 µM	> 100 µM	60.3 µM	> 100 µM	> 100 µM	> 100 µM	87.5 µM	> 100 µM

From PubChem BioAssay (NCI)
